Read-outs that look alike come from different tables or passages of the source. Where only a bound is given, the exact number is not on record here.

For experiment [1], the target named is T1, human N-type Ca channel (Homo sapiens, UniProt Q00975). Kind of experiment: Electrophysiological response, QPatch (depolarization -80 mV to +20 mV). The following applies: for N Type IC50 Data Qpatch Pulse=1 / N Type IC50 Data Qpatch Pulse=15: concentration range 0.01-0.3 µM. For orientation: The patch-clamp technique gives a direct electrical read-out from membranes.
T1 sequence (Q00975 whole entry): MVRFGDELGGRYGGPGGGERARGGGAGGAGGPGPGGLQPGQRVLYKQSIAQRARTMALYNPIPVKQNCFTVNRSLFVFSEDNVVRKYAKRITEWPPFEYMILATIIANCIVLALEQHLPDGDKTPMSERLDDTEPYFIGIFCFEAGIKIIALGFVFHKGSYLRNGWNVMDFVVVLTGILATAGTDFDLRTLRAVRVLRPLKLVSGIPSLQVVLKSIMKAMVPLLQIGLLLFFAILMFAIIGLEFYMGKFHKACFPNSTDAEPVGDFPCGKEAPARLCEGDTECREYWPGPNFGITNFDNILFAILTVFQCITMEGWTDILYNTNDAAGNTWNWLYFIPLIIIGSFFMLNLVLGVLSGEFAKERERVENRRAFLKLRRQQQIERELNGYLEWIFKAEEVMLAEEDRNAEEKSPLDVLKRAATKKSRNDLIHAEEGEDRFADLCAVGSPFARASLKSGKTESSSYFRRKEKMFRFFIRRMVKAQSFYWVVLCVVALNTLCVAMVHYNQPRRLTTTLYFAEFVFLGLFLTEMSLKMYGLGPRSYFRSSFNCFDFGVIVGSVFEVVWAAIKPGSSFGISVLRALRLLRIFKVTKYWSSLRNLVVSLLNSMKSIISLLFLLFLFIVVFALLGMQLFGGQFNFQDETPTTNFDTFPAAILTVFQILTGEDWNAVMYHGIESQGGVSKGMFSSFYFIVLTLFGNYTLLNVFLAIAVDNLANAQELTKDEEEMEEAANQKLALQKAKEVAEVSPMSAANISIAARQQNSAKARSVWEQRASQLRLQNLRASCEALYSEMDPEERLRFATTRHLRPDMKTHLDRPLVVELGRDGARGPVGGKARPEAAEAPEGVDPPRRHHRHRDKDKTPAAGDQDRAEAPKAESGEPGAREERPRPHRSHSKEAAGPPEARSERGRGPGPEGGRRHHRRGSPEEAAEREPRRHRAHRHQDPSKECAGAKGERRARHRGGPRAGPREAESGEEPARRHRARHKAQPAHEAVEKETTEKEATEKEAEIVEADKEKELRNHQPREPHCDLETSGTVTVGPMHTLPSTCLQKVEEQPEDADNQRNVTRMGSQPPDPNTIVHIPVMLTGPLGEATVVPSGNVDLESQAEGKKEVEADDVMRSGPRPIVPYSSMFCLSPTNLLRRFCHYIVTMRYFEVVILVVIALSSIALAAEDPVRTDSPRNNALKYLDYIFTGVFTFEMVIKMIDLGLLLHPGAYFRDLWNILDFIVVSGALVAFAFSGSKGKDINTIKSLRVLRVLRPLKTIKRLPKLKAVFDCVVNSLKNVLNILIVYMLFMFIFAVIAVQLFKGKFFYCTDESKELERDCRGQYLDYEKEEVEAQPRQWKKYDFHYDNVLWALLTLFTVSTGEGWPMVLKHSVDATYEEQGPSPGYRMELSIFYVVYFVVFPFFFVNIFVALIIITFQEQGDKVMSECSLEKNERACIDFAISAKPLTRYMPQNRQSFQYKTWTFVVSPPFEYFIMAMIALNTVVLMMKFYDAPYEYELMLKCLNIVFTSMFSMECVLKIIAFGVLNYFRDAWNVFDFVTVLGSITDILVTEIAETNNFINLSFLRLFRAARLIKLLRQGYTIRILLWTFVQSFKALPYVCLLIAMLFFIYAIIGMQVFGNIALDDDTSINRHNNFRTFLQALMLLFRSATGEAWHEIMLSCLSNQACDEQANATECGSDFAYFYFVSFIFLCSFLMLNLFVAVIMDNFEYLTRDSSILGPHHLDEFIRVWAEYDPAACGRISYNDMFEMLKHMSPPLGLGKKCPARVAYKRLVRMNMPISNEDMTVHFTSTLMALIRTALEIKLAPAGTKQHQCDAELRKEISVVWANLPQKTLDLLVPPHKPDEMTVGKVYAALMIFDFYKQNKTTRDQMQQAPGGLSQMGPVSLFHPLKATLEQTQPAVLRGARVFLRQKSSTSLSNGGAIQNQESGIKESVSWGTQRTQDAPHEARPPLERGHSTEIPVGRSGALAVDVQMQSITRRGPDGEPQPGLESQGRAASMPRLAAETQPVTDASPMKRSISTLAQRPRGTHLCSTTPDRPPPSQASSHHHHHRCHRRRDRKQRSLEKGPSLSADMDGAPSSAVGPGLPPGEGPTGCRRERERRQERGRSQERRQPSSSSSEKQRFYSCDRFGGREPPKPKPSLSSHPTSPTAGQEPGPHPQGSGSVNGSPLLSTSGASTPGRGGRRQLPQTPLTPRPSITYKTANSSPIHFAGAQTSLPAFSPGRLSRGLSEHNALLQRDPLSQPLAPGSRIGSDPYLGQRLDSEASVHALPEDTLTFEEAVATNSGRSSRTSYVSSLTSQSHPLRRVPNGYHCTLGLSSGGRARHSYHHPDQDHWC
T1 sequence (P54284 whole entry partner): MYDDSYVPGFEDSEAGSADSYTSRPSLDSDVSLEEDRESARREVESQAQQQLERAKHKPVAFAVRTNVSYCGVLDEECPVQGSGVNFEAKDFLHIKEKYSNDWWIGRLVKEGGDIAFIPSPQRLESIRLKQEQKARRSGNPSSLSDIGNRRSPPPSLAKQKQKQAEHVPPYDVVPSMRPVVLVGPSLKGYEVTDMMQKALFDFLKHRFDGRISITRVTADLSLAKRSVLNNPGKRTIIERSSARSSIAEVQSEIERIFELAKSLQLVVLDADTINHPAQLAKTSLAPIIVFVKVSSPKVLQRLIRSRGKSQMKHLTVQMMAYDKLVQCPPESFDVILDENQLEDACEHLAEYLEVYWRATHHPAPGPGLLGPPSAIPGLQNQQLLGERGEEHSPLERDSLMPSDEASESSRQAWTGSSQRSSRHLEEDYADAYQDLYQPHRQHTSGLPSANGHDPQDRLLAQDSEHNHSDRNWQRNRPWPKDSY
T1 sequence (P54289 25-956 partner limits assumed): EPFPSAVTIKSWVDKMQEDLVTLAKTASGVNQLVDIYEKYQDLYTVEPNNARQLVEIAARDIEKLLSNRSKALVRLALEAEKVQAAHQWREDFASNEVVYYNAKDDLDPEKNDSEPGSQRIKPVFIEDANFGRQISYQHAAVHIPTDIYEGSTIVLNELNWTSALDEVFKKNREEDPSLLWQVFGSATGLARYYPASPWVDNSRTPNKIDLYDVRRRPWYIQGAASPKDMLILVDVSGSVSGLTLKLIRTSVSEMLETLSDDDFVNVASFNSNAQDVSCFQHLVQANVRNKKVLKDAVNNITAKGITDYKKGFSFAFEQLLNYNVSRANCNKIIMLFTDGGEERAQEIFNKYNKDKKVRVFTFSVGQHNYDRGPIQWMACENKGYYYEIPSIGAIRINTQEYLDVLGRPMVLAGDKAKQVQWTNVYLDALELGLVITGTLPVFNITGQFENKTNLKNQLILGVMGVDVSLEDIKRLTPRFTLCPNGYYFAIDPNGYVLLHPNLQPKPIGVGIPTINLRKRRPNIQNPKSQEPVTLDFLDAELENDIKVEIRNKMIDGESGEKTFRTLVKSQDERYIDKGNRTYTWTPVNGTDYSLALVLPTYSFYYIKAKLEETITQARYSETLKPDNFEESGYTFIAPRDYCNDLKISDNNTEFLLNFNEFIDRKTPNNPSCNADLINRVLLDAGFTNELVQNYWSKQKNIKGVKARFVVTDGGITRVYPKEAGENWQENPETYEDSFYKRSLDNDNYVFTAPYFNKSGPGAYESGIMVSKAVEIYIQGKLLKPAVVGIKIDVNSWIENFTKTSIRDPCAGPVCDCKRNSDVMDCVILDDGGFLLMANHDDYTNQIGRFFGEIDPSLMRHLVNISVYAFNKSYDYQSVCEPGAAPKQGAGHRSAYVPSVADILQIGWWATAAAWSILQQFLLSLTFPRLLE
T1 sequence (P54289 957-1103 partner limits assumed): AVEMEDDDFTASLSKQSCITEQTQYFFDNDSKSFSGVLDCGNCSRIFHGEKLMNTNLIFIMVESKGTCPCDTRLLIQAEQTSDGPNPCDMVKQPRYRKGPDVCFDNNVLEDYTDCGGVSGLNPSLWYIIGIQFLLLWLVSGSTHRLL
Experimental: The recombinant cell line described above was used in the measurement of electrophysiological properties with QPatch (Sophion). Cells were maintained in culture as mentioned above. Prior to the experiment, the flasks were moved to 30 °C and incubated for 48-72 hrs. On the day of assaying, cells were detached and harvested. The cell pellet was re-suspended in SMF4HEK (HyClone)/25mM HEPS at 2-5 million/ mL and placed on the QStirrer of the QPatch for 30-60 min prior to the start of the assay. […] Microtiter-Plate/Reference Buffer contained 140 mM TEA-Cl, 10mM BaCl2, 0.8 mM MgCl2, 10 mM HEPES pH ∼7.4 adjusted with TEA-OH/HCl, and ∼300mOsm. Cells were transferred to a QPatch 48 plate and gigaseal was formed. The plate was perfused with intracellular and extracellular buffer. […] In brief, cells were depolarized from resting potential of -80 mV to +20 mV and current was recorded. Data was plotted as percent inhibition vs concentration of the compound and IC50 values were generated using Graphpad Prism non-linear regression analysis.

Experiment [2] addresses T1, human N-type Ca channel. Kind of experiment: Calcium influx assay (FDSS), KCl depolarization, Fluo8 dye. It counts as cell-based. Also noted: host or cells: HEK 293. An outline of the steps: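 HEK293 cells stably expressing the human N-type Ca channel were loaded with Fluo8 and washed in choline-based buffer (pH 7.2, 2 mM CaCl2, 2 mM KCl). Cells were preincubated with serially diluted compound for 15 min in the dark. Ca influx was then recorded by fluorescence after depolarization with 100 mM KCl.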

The next experiment deals with Rats. Put plainly: Sciatic nerve ligation (SNL) model of neuropathic pain, L5/L6 spinal nerve ligation, von Frey filaments. It counts as in vivo. The note with it: response at Tmax. From the text: Left L5 and L6 spinal nerves are isolated adjacent to the vertebral column and were ligated with 5-0 silk suture distal to the dorsal root ganglion, as described by Kim and Chung (1992). The incision was closed with the help of GLUture topical tissue adhesive. At 14 days post-surgery (one day prior to test compound administration), mechanical allodynia was quantified using eight von Frey filaments, calibrated in the range 0.4-15.1 g (Nielsen et al 2005). Rats were placed into individual plastic containers on top of a suspended wire mesh grid and acclimated to the test chambers for at least 15 min. Filaments were applied perpendicular to the mid-plantar paw surface, with enough force to cause slight buckling, and held in place for 6-8 sec until a response was noted as a sharp paw withdrawal, flinching, licking and/or biting immediately upon removal of the filament (Nielsen et al 2005). […] Test compounds of Formula (I) were administered and a response was measured at Tmax. The maximum possible effect (% MPE) was determined to be 100% if the sensitivity in the ipsilateral paw neared that of the contralateral paw. Values from vehicle-treated animals were considered 0 %. The compound effect was determined based on these values.

The test system of experiment [3] is CFA-induced mechanical allodynia. Kind of experiment: Complete Freund's Adjuvant (CFA) induced mechanical allodynia, Von Frey test. It counts as in vivo. The method, then: Animals arrived and were acclimatized for 1-2 weeks in a temperature-controlled room with a 12 h light/dark cycle and allowed free access to standard laboratory chow and water.
CFA (Sigma) was injected intra-plantar (75 µg/150 µL) from a concentration of 1:1 (diluted 1 mg/ mL of CFA in 1 mL ofPBS). CFA-induced mechanical allodynia was quantified by a Von frey test on day 2 (48 h post injection of CFA) and animals were randomized based on iPWT response (Dixon 1980). […] Animals were administered a compound of Formula (I) through appropriate route based on their pharmacokinetic properties. Responses were measured with a Von-Frey filament. The maximum possible effect (% MPE) was determined as 100% if sensitivity in ipsilateral paw neared that of the contralateral paw. Values from the vehicle-treated animals were considered 0%. The compound effect was determined based on these values.

Where [4] appears, read: N Type IC50 Data Qpatch Pulse=1, Pulse=1, concentration range 0.3-10 µM.
Where [5] appears, read: N Type IC50 Data Qpatch Pulse=15, Pulse=15, concentration range 0.3-10 µM.
[6] abbreviates: HEK 293 cells expressing human N-type Ca channel, 100 mM KCl, read-out: N Type IC50 Data FDSS.
Where [7] appears, read: read-out: Qpatch Pulse=1 (percent inhibition).
The mark [8] stands for this setting: read-out: Qpatch Pulse=15 (percent inhibition).
[9] abbreviates: N Type IC50 Data Qpatch Pulse=1, Pulse=1, concentration range 0.01-1 µM.
The mark [10] stands for this setting: N Type IC50 Data Qpatch Pulse=15, Pulse=15, concentration range 0.01-1 µM.
Setting [11] is: read-out: N Type IC50 Data Qpatch Pulse=15, Pulse=15, concentration range 0.01-1 µM.

With `COc1ncccc1-c1nc(C2CC(C)(C)OC(C)(C)C2)cn1-c1ccc(F)cc1` [Compound 10, 3-(1-(4-fluorophenyl)-4-(2,2,6,6-tetramethyltetrahydro-2H-pyran-4-yl)-1H-imidazol-2-yl)-2-methoxypyridine], the IC50 turned out to be 5.92 µM against human N-type Ca channel [1] (setting [4]), 1.47 µM against human N-type Ca channel [1] (setting [5]) and 0.401 µM at human N-type Ca channel [2] (setting [6]). In addition, the “SNL(%MPE)” value in the experiment with Rats (Dose 3 mg/kg) was determined as 12.17±11.24%; in the experiment with Rats (Dose 10 mg/kg), 40.53±13.64%; in the experiment on Rats (Dose 30 mg/kg), 54.59±13.37%; with Rats (Dose 100 mg/kg) it was 85.45±8.44%.
With `COc1ncccc1-c1nc(C2CC(C)(C)OC(C)(C)C2)cn1-c1ccc(Cl)cc1` [Compound 11, 3-(1-(4-chlorophenyl)-4-(2,2,6,6-tetramethyltetrahydro-2H-pyran-4-yl)-1H-imidazol-2-yl)-2-methoxypyridine], the inhibition at 10 µM came to 63% at human N-type Ca channel [1] (setting [7]) and 21% at human N-type Ca channel [1] (setting [8]). The IC50 at human N-type Ca channel [2] is 0.082 µM. Also, the “CFA (% Reversal)” value worked out at 20.97±7.88% in experiment [3] (Dose 3 mg/kg), 41.12±5.14% in experiment [3] (Dose 10 mg/kg), 55.8±11.32% in experiment [3] (Dose 30 mg/kg) and 76.4±3.78% in experiment [3] (Dose 60 mg/kg). The “SNL(%MPE)” value with Rats (Dose 3 mg/kg) stood at 28.29± 10.84%; in the experiment with Rats (Dose 10 mg/kg), 49.01±9.93%; with Rats (Dose 30 mg/kg) it was 70.69±10.3%; in the experiment on Rats (Dose 60 mg/kg), 96.18±3.22%.
Take `COc1ccccc1-c1nc(C2CC(C)(C)OC(C)(C)C2)cn1-c1ccc(C#N)cc1` [Compound 1, 4-[2-(2-Methoxyphenyl)-4-(2,2,6,6-tetramethyltetrahydro-2H-pyran-4-yl)-1H-imidazol-1-yl]benzonitrile]: the IC50 at human N-type Ca channel [1] (setting [9]) is 0.365 µM; against human N-type Ca channel [1] (setting [10]), more than 1 µM; at human N-type Ca channel [2] (setting [6]) it was 0.041 µM. Also, the “CFA (% Reversal)” value in experiment [3] (Dose 12.5 mg/kg) amounted to 19.73±8.25%; in experiment [3] (Dose 25 mg/kg), 37.62±7.17%; in experiment [3] (Dose 50 mg/kg), 58.8±10.22%; in experiment [3] (Dose 100 mg/kg) it was 75.26±8.96%. Moreover, the “SNL(%MPE)” value with Rats (Dose 12.5 mg/kg) was found to be 22.21±7.61%; in the experiment on Rats (Dose 25 mg/kg), 40.9±20.29%; in the experiment on Rats (Dose 100 mg/kg), 75±13.01%.
With `COc1ccccc1-c1nc(C2CC(C)(C)OC(C)(C)C2)cn1-c1ccc(Cl)cc1` [Compound 38, 1-(4-chlorophenyl)-2-(2-methoxyphenyl)-4-(2,2,6,6-tetramethyltetrahydro-2H-pyran-4-yl)-1H-imidazole], the results for the IC50 against human N-type Ca channel [1] (setting [4]), against human N-type Ca channel [1] (setting [5]) and on human N-type Ca channel [2] (setting [6]) were 2.4 µM, 0.769 µM and 0.372 µM, respectively. For the same compound, the “SNL(%MPE)” value with Rats (Dose 50 mg/kg) is on record as 87.01± 9.25%.
For `COc1ccccc1-c1nc(C2=CC(C)(C)OC(C)(C)C2)cn1-c1ccc(Br)c(F)c1` [Compound 125, 1-(4-bromo-3-fluorophenyl)-2-(2-methoxyphenyl)-4-(2,2,6,6-tetramethyl-3,6-dihydro-2H-pyran-4-yl)-1H-imidazole], the IC50 on human N-type Ca channel [1] (setting [4]) is 2.1 µM; on human N-type Ca channel [1] (setting [5]), 2.3 µM; at human N-type Ca channel [2] (setting [6]) it was 0.313 µM.
With `COc1ccccc1-c1nc(C2CC(C)(C)OC(C)(C)C2)cn1-c1ccc(F)cc1` [Compound 4, 1-(4-fluorophenyl)-2-(2-methoxyphenyl)-4-(2,2,6,6-tetramethyltetrahydro-2H-pyran-4-yl)-1H-imidazole], the 50% inhibitory concentration (IC50) was found to be 1.06 µM on human N-type Ca channel [1] (setting [5]) and 0.017 µM on human N-type Ca channel [2] (setting [6]).
On to `COc1ncccc1-c1nc(C2(O)CC(C)(C)OC(C)(C)C2)cn1-c1ccc(Cl)c(F)c1` [Compound 113, 4-(1-(4-chloro-3-fluorophenyl)-2-(2-methoxypyridin-3-yl)-1H-imidazol-4-yl)-2,2,6,6-tetramethyltetrahydro-2H-pyran-4-ol], for which the IC50 on human N-type Ca channel [1] (setting [4]) amounted to 4.4 µM; against human N-type Ca channel [1] (setting [5]) it was 7.8 µM; on human N-type Ca channel [2] (setting [6]), 0.083 µM.
As to `COc1cccnc1-c1nc(C2CC(C)(C)OC(C)(C)C2)cn1-c1ccc(F)cc1` [Compound 70, 2-(1-(4-fluorophenyl)-4-(2,2,6,6-tetramethyltetrahydro-2H-pyran-4-yl)-1H-imidazol-2-yl)-3-methoxypyridine], the inhibition at 10 µM on human N-type Ca channel [1] (setting [7]) stood at 41%. The IC50 on human N-type Ca channel [2] (setting [6]) amounted to 0.871 µM.
With `CC1(C)CC(c2cn(-c3ccc(Cl)cc3)c(-c3ccc[nH]c3=O)n2)CC(C)(C)O1` [Compound 122, 3-(1-(4-chlorophenyl)-4-(2,2,6,6-tetramethyltetrahydro-2H-pyran-4-yl)-1H-imidazol-2-yl)pyridin-2(1H)-one], the IC50 at human N-type Ca channel [1] (read-out: N Type IC50 Data Qpatch Pulse=1, Pulse=1, concentration range 0.01-1 µM) is more than 1 µM; on human N-type Ca channel [1] (setting [11]), more than 1 µM; on human N-type Ca channel [2] (setting [6]) it was 3.01 µM.
For `COc1ccccc1-c1nc(C2CC(C)(C)OC(C)(C)C2)cn1-c1ccc(F)c(Cl)c1` [Compound 45, 1-(3-chloro-4-fluorophenyl)-2-(2-methoxyphenyl)-4-(2,2,6,6-tetramethyltetrahydro-2H-pyran-4-yl)-1H-imidazole], the IC50 on human N-type Ca channel [1] (setting [4]) was found to be 2.2 µM; on human N-type Ca channel [1] (setting [5]), 0.671 µM; on human N-type Ca channel [2] (setting [6]), 0.149 µM.
As for `COc1nccnc1-c1nc(C2CC(C)(C)OC(C)(C)C2)cn1-c1ccc(F)cc1` [Compound 47, 2-(1-(4-fluorophenyl)-4-(2,2,6,6-tetramethyltetrahydro-2H-pyran-4-yl)-1H-imidazol-2-yl)-3-methoxypyrazine], the IC50 against human N-type Ca channel [1] (setting [9]) is more than 1 µM; at human N-type Ca channel [1] (setting [11]), more than 1 µM; on human N-type Ca channel [2] (setting [6]), 1.54 µM.
With `COc1ccncc1-c1nc(C2CC(C)(C)OC(C)(C)C2)cn1-c1ccc(F)cc1` [Compound 69, 3-(1-(4-fluorophenyl)-4-(2,2,6,6-tetramethyltetrahydro-2H-pyran-4-yl)-1H-imidazol-2-yl)-4-methoxypyridine], the inhibition at 10 µM on human N-type Ca channel [1] (setting [7]) came out at 53%; at human N-type Ca channel [1] (setting [8]), 29%. At human N-type Ca channel [2] (setting [6]), the IC50 came to 1.43 µM.
Take `COc1ncccc1-c1nc(C2CC(C)(C)OC(C)(C)C2)cn1-c1ccc(C#N)c(C(F)(F)F)c1` [Compound 29, 4-(2-(2-methoxypyridin-3-yl)-4-(2,2,6,6-tetramethyltetrahydro-2H-pyran-4-yl)-1H-imidazol-1-yl)-2-(trifluoromethyl) benzonitrile]: on human N-type Ca channel [1] (Pulse=1), the “N Type IC50 Data Qpatch Pulse=1” value is reported as “poor fit(0.01-0.3 µM)”. Moreover, the “N Type IC50 Data Qpatch Pulse=15” value on human N-type Ca channel [1] (Pulse=15) is listed as “poor fit(0.01-0.3 µM)”. Further, at human N-type Ca channel [2] (setting [6]), the IC50 was found to be 0.492 µM.
Regarding `COc1ccccc1-c1nc(C2CC(C)(C)OC(C)(C)C2)cn1-c1ccc(C(F)(F)F)nc1` [Compound 53, 5-(2-(2-methoxyphenyl)-4-(2,2,6,6-tetramethyltetrahydro-2H-pyran-4-yl)-1H-imidazol-1-yl)-2-(trifluoromethyl)pyridine], the IC50 was 6.5 µM at human N-type Ca channel [1] (setting [4]), 2.01 µM at human N-type Ca channel [1] (setting [5]) and 0.096 µM on human N-type Ca channel [2] (setting [6]).
On to `COc1ncccc1-c1nc(C2CC(C)(C)OC(C)(C)C2)cn1-c1cccc(C#N)c1` [Compound 48, 3-(2-(2-methoxypyridin-3-yl)-4-(2,2,6,6-tetramethyltetrahydro-2H-pyran-4-yl)-1H-imidazol-1-yl)benzonitrile], for which the IC50 on human N-type Ca channel [1] (setting [9]) was determined as 0.222 µM; on human N-type Ca channel [1] (setting [10]), 0.843 µM; at human N-type Ca channel [2] (setting [6]) it was 5.41 µM.
For the compound `COc1ccccc1-c1nc(C2CC(C)(C)OC(C)(C)C2)cn1S(=O)(=O)c1ccc(F)cc1` [Compound 98, 1-((4-fluorophenyl)sulfonyl)-2-(2-methoxyphenyl)-4-(2,2,6,6-tetramethyltetrahydro-2H-pyran-4-yl)-1H-imidazol,], the IC50 came to 9.02 µM against human N-type Ca channel [1] (setting [4]), 3.6 µM against human N-type Ca channel [1] (setting [5]) and 0.692 µM at human N-type Ca channel [2] (setting [6]).
For `COc1ncccc1-c1nc(C2CC(C)(C)OC(C)(C)C2)cn1-c1ccc(C#N)c(C)c1` [Compound 15, 4-(2-(2-methoxypyridin-3-yl)-4-(2,2,6,6-tetramethyltetrahydro-2H-pyran-4-yl)-1H-imidazol-1-yl)-2-methylbenzonitrile], the “N Type IC50 Data Qpatch Pulse=1” value at human N-type Ca channel [1] (Pulse=1) is recorded as “poor fit(0.01-0.3 µM)”. Moreover, the “N Type IC50 Data Qpatch Pulse=15” value at human N-type Ca channel [1] (Pulse=15) is “poor fit(0.01-0.3 µM)”. Besides, the IC50 at human N-type Ca channel [2] (setting [6]) is 0.256 µM.

The term IC50 denotes the midpoint of a concentration-inhibition curve. For orientation: inhibition means the percentage by which the read-out fell short of the control.

The values are drawn from patent EP3033337B1, “SUBSTITUTED IMIDAZOLES AS N-TYPE CALCIUM CHANNEL BLOCKERS” (Janssen Pharmaceutica NV, priority 2013, dated 2015).
